Experimental data: patent publication US8486921B2, “Synthesis of tetracyclines and analogues thereof” (President and Fellows of Harvard College, priority 2006, dated 2013)

Tested on: Gram-positive strains
Test: Whole-cell antibacterial MIC assay (NCCLS serial dilution), Gram-positive strains
Format: cell-based
Settings: each of the Gram-positive strains examined, including strains with resistance to tetracycline, methicillin, and vancomycin
Method: The efficiencies of the synthetic sequences have allowed for the preparation of sufficient quantities of each tetracycline analog for antibacterial testing using standard serial-dilution techniques (5-20 mg amounts). Minimum inhibitory concentrations (MICs) are reported for each analog in whole-cell antimicrobial assays using five Gram-positive and five Gram-negative organisms (FIG. 18).
Whole-cell antibacterial activity was determined according to methods recommended by the NCCLS-(National Committee for Clinical Laboratory Standards. 2002. Methods for dilution antimicrobial susceptibility tests for bacteria that grow aerobically: approved standard-fifth edition. NCCLS document M100-S12. National Committee for Clinical Laboratory Standards. Wayne, Pa.; incorporated herein by reference). Test compounds were dissolved in dimethyl sulfoxide (DMSO) and the resulting solutions were diluted in water (1:10) to produce stock solutions with a final concentration of 256 μg tetracycline analog per mL. In a 96-well microtiter plate, 50-μL aliquots of stock solutions were diluted serially into cation-adjusted Mueller-Hinton broth (MHB; Becton-Dickinson, Cockeysville, Md.). Test organisms (50 μL aliquots of solutions […]) were then added to the appropriate wells of the microtiter plate. […] The MIC was the lowest concentration of compound determined to inhibit visible growth. […]

## CN(C)[C@@H]1C(O)=C(C(N)=O)C(=O)[C@@]2(O)C(O)=C3C(=O)c4c(cc5ccccc5c4O)C[C@H]3C[C@@H]12 [compound 6]
  antibacterial activity (MIC) compared with tetracycline: activity equal to or greater than tetracycline
